Test results from patent US4272437A, “Antibacterial agents, and 4-thio azetidinone intermediates” (priority 1979, dated 1981).
≈ marks a conversion by molar mass, not a printed value. Where two headings read alike, the source gives them in different places.

Assays:
[1] = stability in aqueous solution followed by UV; assay type: physicochemical; parameters: unit not given here; conditions: for ε at λmax 255 in aqueous solution (stability) / ε at λmax 307 in aqueous solution (stability) / ε at λmax 254 in aqueous solution (stability): UV
Method: To a solution of penem 3 (2.4 g, 6.89 mmoles) in tetrahydrofuran-ether-water mixture (1:1:1, 165 ml) was added 30% palladium on diatomaceous earth (4.8 g). The reaction mixture was hydrogenated under 45 p.s.i. at 23° C. for 2.5 h and filtered over celite pad. The filtrate and washings were combined, washed twice with ether, centrifugated and filtered several times to give a clear solution which was lyophilized; 0.622 g, 45%. The crystallization of the compound was induced by the addition of water (0.8 ml); the suspension was centrifuged and the water was removed leaving an orange solid. This solid was washed twice with water and a slightly yellow solid was obtained after drying: […], 19.8%. UV λmax^H.sbsp.2^O : 307 (ε=4318) and 257 (ε=2650). Some crude starting material (1.2 g, 50%) was recovered. The compound (50 mg) can also be purified by column chromatography [Sephadex G10, column size: 1.6×100 cm, flow rate: 10 ml/h, eluent: distilled water, fraction volume: 1.5 ml, detector: refractive index]. UV λmax^H.sbsp.2^O 307 (ε=3597) and 255 (ε=2424).
The stability of the compound in aqueous solution was checked by:
A sample of compound 4 was kept at 23° C. for 3 days and the UV was taken: UV λmax^H.sbsp.2^O : 307 (ε=3055) and 255 (ε=2008).
To a solution of ester 6 (200 mg, 0.5 mmole) in tetrahydrofuran (10 ml) was added ether (10 ml), water (10 ml) and 30% palladium on diatomaceous earth (200 mg). The reaction mixture was hydrogenated in a Parr apparatus under 35 p.s.i. at 25° C. for 2 h 30 min and filtered over a celite pad. The filtrate was washed twice with ether and the aqueous solution was lyophilized, giving a yellow powder which was purified by column chromatography [Sephadex G-10, bed dimensions: 100×1.6 cm, flow rate: 12 ml/h, eluent: distilled water, fraction volume: 1.5 ml detector: refractive index]. The right fractions were combined and lyophilized to give a white powder (10 mg, 8.8%). UV λmax^H.sbsp.2 O 301 (ε=4930), 258 (ε=3290). IR (KBr) cm^-1 :1770 (c=o of β-lactam) and 1580 [drawing 587] The stability of compound 7 in aqueous solution was followed by UV; after 6 h: 301 (4795) and 258 (3105) and after 72 h: 301 (4565) and 258 (3150). […]

Pr. mirabilis A-9900 = assay: MIC, tube dilution, Proteus mirabilis A9900; assay type: cell-based; conditions: Proteus mirabilis, A9900, Proteus mirabilis A9900; overnight 37° C.; read-out: Minimum Inhibitory Concentration (M.I.C.)
From the text: (§1) Representative compounds of the present invention were subjected to in vitro antibiotic screening against a variety of microorganisms.

Ent. cloacae A-9656 = assay: MIC, tube dilution, Enterobacter cloacae A9656; assay type: cell-based; conditions: overnight 37° C., read-out: Minimum Inhibitory Concentration (M.I.C.)
From the text: as §1

Ps. aeruginosa A-9843A = assay: MIC, tube dilution, Pseudomonas aeruginosa A9843A; assay type: cell-based; conditions: Pseudomonas aeruginosa, A9843A, read-out: Minimum Inhibitory Concentration (M.I.C.), Pseudomonas aeruginosa A9843A; overnight 37° C.
From the text: as §1

E. coli A-20341-1 = assay: MIC, tube dilution, Escherichia coli A20341-1; assay type: cell-based
From the text: as §1

[2] = system: Staph. aureus (Meth-Res) A-15097; assay: MIC, tube dilution, Staphylococcus aureus A15097 (Meth-Res); assay type: cell-based; conditions: Staphylococcus aureus, overnight 37° C.
From the text: as §1

Pr. vulgaris A-9716 = assay: MIC, tube dilution, Proteus vulgaris / Proteus mirabilis A9716; assay type: cell-based, Proteus vulgaris (name changed to Proteus mirabilis); conditions: Proteus vulgaris, overnight 37° C.
From the text: as §1

Ser. marcescens A-20019 = assay: MIC, tube dilution, Serratia marcescens A20019; assay type: cell-based; conditions: Serratia marcescens, A20019, Serratia marcescens A20019; overnight 37° C.; read-out: Minimum Inhibitory Concentration (M.I.C.)
From the text: as §1

Ps. aeruginosa A-21213 = assay: MIC, tube dilution, Pseudomonas aeruginosa A21213; assay type: cell-based; conditions: overnight 37° C., read-out: Minimum Inhibitory Concentration (M.I.C.)
From the text: as §1

Staph. aureus A-9537 = assay: MIC, tube dilution, Staphylococcus aureus A9537; assay type: cell-based; conditions: Staphylococcus aureus, A9537, Staph. aureus A9537; overnight 37° C., Nutrient Broth; read-out: Minimum Inhibitory Concentration (M.I.C.)
From the text: as §1

[3] = system: Staph. aureus (Pen-Res) A-9606; assay: MIC, tube dilution, Staphylococcus aureus A9606 (Pen-Res); assay type: cell-based; conditions: Staphylococcus aureus, overnight 37° C.
From the text: as §1

Ent. cloacae A-9659 = assay: MIC, tube dilution, Enterobacter cloacae A9659; assay type: cell-based; conditions: Enterobacter cloacae, A9659, Enterobacter cloacae A9659; overnight 37° C.; read-out: Minimum Inhibitory Concentration (M.I.C.)
From the text: as §1

[4] = system: Klebsiella species A20468; assay: MIC, tube dilution, Klebsiella species A20468; assay type: cell-based; conditions: Klebsiella species (K. pneumoniae) A20468; overnight 37° C.; read-out: Minimum Inhibitory Concentration (M.I.C.)
From the text: as §1

E. coli A-15119 = assay: MIC, tube dilution, Escherichia coli A15119; assay type: cell-based; conditions: Escherichia coli, A15119, E. coli A15119; overnight 37° C.; read-out: Minimum Inhibitory Concentration (M.I.C.)
From the text: as §1

Proteus rettgeri A21203 = assay: MIC, tube dilution, Proteus rettgeri A21203; assay type: cell-based; conditions: Providencia rettgeri, A21203, Proteus rettgeri A21203; overnight 37° C.; read-out: Minimum Inhibitory Concentration (M.I.C.)
From the text: as §1

[5] = system: Staph. aureus A-9537 and 50% serum; assay: MIC, tube dilution, Staph. aureus A9537 + 50% serum; assay type: cell-based, Staphylococcus aureus; conditions: Staphylococcus aureus, overnight 37° C., read-out: Minimum Inhibitory Concentration (M.I.C.)
From the text: as §1

K. pneumoniae A-15130 = assay: MIC, tube dilution, Klebsiella pneumoniae A15130; assay type: cell-based; conditions: Klebsiella pneumoniae, A15130, K. pneumoniae A15130; overnight 37° C.; read-out: Minimum Inhibitory Concentration (M.I.C.)
From the text: as §1

Str. pneumoniae A-9585 = assay: MIC, tube dilution, Streptococcus pneumoniae A9585; assay type: cell-based; conditions: Streptococcus pneumoniae, A9585, Str. pneumoniae A9585; overnight 37° C., Nutrient Broth; read-out: Minimum Inhibitory Concentration (M.I.C.)
From the text: as §1

Pr. morganii A-15153 = assay: MIC, tube dilution, Proteus morganii A15153; assay type: cell-based; conditions: Morganella morganii, A15153, Proteus morganii A15153; overnight 37° C.; read-out: Minimum Inhibitory Concentration (M.I.C.)
From the text: as §1

Str. faecalis A-20688 = assay: MIC, tube dilution, Streptococcus faecalis A20688; assay type: cell-based; conditions: Enterococcus faecalis, A20688, Str. faecalis A20688; overnight 37° C.; read-out: Minimum Inhibitory Concentration (M.I.C.)
From the text: as §1

Str. pyogenes A-9604 = assay: MIC, tube dilution, Streptococcus pyogenes A9604; assay type: cell-based; conditions: Streptococcus pyogenes, A9604, Str. pyogenes A9604; overnight 37° C., Nutrient Broth; read-out: Minimum Inhibitory Concentration (M.I.C.)
From the text: as §1

[6] = system: Providencia stuartii A21205; assay: MIC, tube dilution, Providencia stuartii (Pr. rettgeri) A21205; assay type: cell-based; conditions: Providencia stuartii, A21205, read-out: Minimum Inhibitory Concentration (M.I.C.)
From the text: as §1

[7] = sample kept at 23° C. for 3 days, UV in H2 O

For `NCC1=C(C(=O)O)N2C(=O)CC2S1` (centres unmarked) [Example 16, 2-Aminomethylpenem-3-carboxylic Acid], the “ε at λmax 255 in aqueous solution (stability)” value ([1]; 6 h) was 2773, the “ε at λmax 307 in aqueous solution (stability)” value ([1]; 6 h) was 3545 and the “ε at λmax 255 in aqueous solution (stability)” value ([1]; 21 h) was 2411. For the same compound, the “ε at λmax 307 in aqueous solution (stability)” value ([1]; 21 h) was 3467, the “ε at λmax 254 in aqueous solution (stability)” value ([1]; 28 h) was 2398 and the “ε at λmax 307 in aqueous solution (stability)” value ([1]; 28 h) was 3337. For the same compound, the “ε at λmax 254 in aqueous solution (stability)” value ([1]; 46 h) was 2398, the “ε at λmax 307 in aqueous solution (stability)” value ([1]; 46 h) was 3259 and the “ε at λmax 307 in aqueous solution (stability)” value ([1]; 70 h) was 3076. For the same compound, the “ε at λmax 307 in aqueous solution (stability)” value ([1]; 94 h) was 2842, the “ε at λmax 307 in aqueous solution (stability)” value ([1]; 170 h) was 1900 and the “ε at λmax 255 (stability of stored sample)” value [1, 7] was 2008. The “ε at λmax 307 (stability of stored sample)” value [1, 7] was 3055, the MIC (Pr. mirabilis A-9900) was 2 µg/mL (≈ 9.99 µM) and the MIC (Ent. cloacae A-9656; Enterobacter cloacae, A9656, Enterobacter cloacae A9656) was 8 µg/mL (≈ 40 µM). It also gave an MIC (Ps. aeruginosa A-9843A) of 1 µg/mL (≈ 4.99 µM), an MIC (E. coli A-20341-1; Escherichia coli, A203411, E. coli A20341-1; overnight 37° C.; read-out: Minimum Inhibitory Concentration (M.I.C.)) of 16 µg/mL (≈ 79.9 µM) and an MIC ([2]; Staph. aureus A15097 (Meth-Res), read-out: Minimum Inhibitory Concentration (M.I.C.)) of 63 µg/mL (≈ 315 µM). The MIC (Pr. vulgaris A-9716; A9716, Proteus vulgaris / Proteus mirabilis A9716, read-out: Minimum Inhibitory Concentration (M.I.C.)) was 2 µg/mL (≈ 9.99 µM), the MIC (Ser. marcescens A-20019) was 8 µg/mL (≈ 40 µM) and the MIC (Ps. aeruginosa A-21213; Pseudomonas aeruginosa, A21213, Pseudomonas aeruginosa A21213) was 1 µg/mL (≈ 4.99 µM). It also gave an MIC (Staph. aureus A-9537) of 2 µg/mL (≈ 9.99 µM), an MIC ([3]; Staph. aureus A9606 (Pen-Res), read-out: Minimum Inhibitory Concentration (M.I.C.)) of 8 µg/mL (≈ 40 µM) and an MIC (Ent. cloacae A-9659) of 8 µg/mL (≈ 40 µM). It also gave an MIC [4] of 125 µg/mL (≈ 624 µM), an MIC (E. coli A-15119) of 4 µg/mL (≈ 20 µM) and an MIC (Proteus rettgeri A21203) of 1 µg/mL (≈ 4.99 µM). The MIC [5] was 32 µg/mL, the MIC (K. pneumoniae A-15130) was 8 µg/mL (≈ 40 µM) and the MIC (Str. pneumoniae A-9585) was 1 µg/mL (≈ 4.99 µM). The MIC (Pr. morganii A-15153) was 1 µg/mL (≈ 4.99 µM), the MIC (Str. faecalis A-20688) was over 125 µg/mL and the MIC (Str. pyogenes A-9604) was 4 µg/mL (≈ 20 µM).

`COC1=C(C(=O)[O-])N2C(=O)C[C@H]2S1.[Na+]` [Preparation 17, Sodium 2-Methoxypenem-3-carboxylate] showed an MIC (Pr. mirabilis A-9900) of over 63 µg/mL, an MIC (Ent. cloacae A-9656; Enterobacter cloacae A9656) of over 63 µg/mL and an MIC (Ps. aeruginosa A-9843A) of over 63 µg/mL. The MIC (E. coli A-20341-1; Escherichia coli, A203411; E. coli A20341-1; overnight 37° C.; read-out: Minimum Inhibitory Concentration (M.I.C.)) was over 63 µg/mL, the MIC ([2]; read-out: Minimum Inhibitory Concentration (M.I.C.), Staph. aureus A15097 (Meth-Res)) was over 63 µg/mL and the MIC (Pr. vulgaris A-9716; A9716, read-out: Minimum Inhibitory Concentration (M.I.C.), Proteus vulgaris / Proteus mirabilis A9716) was over 63 µg/mL. The MIC (Ser. marcescens A-20019) was over 63 µg/mL, the MIC (Ps. aeruginosa A-21213; Pseudomonas aeruginosa A21213) was over 63 µg/mL and the MIC (Staph. aureus A-9537) was over 2 µg/mL. The MIC ([3]; read-out: Minimum Inhibitory Concentration (M.I.C.), Staph. aureus A9606 (Pen-Res)) was over 63 µg/mL, the MIC (Ent. cloacae A-9659) was over 63 µg/mL and the MIC [4] was over 63 µg/mL. For the same compound, the MIC (E. coli A-15119) was over 63 µg/mL, the MIC [6] was over 63 µg/mL and the MIC [5] was over 32 µg/mL. For the same compound, the MIC (K. pneumoniae A-15130) was over 63 µg/mL, the MIC (Str. pneumoniae A-9585) was over 2 µg/mL and the MIC (Pr. morganii A-15153) was over 63 µg/mL. For the same compound, the MIC (Str. faecalis A-20688) was over 63 µg/mL and the MIC (Str. pyogenes A-9604) was over 2 µg/mL.
